Measured values published in ChEMBL document CHEMBL5291721, “A preclinical secondary pharmacology resource illuminates target-adverse drug reaction associations of marketed drugs” (Nat Commun, 2023).

Columns and labels:
[1] = biological target: Gamma-aminobutyric acid receptor subunit alpha-1/alpha-2/beta-2/gamma-2 (Homo sapiens, UniProt P14867+P18507+P47869+P47870); format: protein-complex assay
[2] = biological target: T1, Alpha-2A adrenergic receptor (Homo sapiens, UniProt P08913); format: functional, cell-based
T1 sequence (P08913 whole entry): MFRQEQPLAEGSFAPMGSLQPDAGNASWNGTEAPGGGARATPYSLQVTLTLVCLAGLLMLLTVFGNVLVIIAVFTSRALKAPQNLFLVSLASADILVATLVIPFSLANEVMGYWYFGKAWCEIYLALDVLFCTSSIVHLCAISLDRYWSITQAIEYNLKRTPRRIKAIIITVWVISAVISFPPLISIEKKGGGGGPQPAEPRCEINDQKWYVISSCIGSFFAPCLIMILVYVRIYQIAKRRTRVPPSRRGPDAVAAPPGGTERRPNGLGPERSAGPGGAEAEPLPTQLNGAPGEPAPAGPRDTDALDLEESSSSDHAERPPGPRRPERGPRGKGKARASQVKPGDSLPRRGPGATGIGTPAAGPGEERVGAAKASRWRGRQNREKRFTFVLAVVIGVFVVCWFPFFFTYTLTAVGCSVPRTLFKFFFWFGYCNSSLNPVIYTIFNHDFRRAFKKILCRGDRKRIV

[3] = biological target: T1, Alpha-2A adrenergic receptor; format: functional, cell-based; remark: listed apart in the source
D(1A) dopamine receptor = D(1A) dopamine receptor (Homo sapiens, UniProt P21728); format: functional, cell-based
D(1A) dopamine receptor, sequence (P21728 whole entry): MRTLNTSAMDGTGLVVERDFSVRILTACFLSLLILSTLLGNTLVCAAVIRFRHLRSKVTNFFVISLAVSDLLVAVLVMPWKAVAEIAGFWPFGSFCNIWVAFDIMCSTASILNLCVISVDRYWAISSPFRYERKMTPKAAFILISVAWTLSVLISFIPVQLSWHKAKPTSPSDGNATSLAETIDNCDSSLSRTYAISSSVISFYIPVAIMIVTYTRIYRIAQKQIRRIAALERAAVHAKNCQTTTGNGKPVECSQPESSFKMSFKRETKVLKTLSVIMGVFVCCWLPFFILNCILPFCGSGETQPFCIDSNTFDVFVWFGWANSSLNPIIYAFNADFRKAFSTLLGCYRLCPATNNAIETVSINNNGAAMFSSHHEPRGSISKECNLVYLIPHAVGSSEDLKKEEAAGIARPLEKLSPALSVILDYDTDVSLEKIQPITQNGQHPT

[4] = biological target: Gamma-aminobutyric acid receptor subunit alpha-1 (Rattus norvegicus, UniProt P62813)
Gamma-aminobutyric acid receptor subunit alpha-1, sequence (P62813 whole entry): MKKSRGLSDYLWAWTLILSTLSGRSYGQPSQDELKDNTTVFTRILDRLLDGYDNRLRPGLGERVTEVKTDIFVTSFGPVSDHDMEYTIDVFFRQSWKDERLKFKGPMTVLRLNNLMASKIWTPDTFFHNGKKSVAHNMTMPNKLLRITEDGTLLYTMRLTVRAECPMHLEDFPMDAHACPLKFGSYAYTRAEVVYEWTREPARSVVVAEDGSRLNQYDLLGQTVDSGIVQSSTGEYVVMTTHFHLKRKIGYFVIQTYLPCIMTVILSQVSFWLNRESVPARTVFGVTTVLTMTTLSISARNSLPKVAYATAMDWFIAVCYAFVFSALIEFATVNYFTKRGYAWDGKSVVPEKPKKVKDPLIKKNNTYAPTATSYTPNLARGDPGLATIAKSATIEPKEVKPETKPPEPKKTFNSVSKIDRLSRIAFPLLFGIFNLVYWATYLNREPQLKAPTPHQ

[5] = biological target: Glutamate receptor ionotropic, NMDA 1 (Rattus norvegicus, UniProt P35439)
Histamine H2 receptor = Histamine H2 receptor (Homo sapiens, UniProt P25021); format: functional, cell-based
Histamine H2 receptor, sequence (P25021 whole entry): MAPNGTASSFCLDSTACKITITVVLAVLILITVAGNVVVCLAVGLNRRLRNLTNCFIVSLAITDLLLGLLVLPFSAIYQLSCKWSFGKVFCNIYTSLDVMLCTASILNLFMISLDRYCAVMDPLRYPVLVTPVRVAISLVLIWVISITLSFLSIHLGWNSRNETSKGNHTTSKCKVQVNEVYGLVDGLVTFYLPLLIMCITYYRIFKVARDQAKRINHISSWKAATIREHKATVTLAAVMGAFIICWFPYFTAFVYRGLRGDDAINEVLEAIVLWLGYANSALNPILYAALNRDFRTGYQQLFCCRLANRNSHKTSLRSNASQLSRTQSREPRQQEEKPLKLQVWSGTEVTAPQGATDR

[6] = biological target: Kappa-type opioid receptor (Homo sapiens, UniProt P41145)
Kappa-type opioid receptor, sequence (P41145 whole entry): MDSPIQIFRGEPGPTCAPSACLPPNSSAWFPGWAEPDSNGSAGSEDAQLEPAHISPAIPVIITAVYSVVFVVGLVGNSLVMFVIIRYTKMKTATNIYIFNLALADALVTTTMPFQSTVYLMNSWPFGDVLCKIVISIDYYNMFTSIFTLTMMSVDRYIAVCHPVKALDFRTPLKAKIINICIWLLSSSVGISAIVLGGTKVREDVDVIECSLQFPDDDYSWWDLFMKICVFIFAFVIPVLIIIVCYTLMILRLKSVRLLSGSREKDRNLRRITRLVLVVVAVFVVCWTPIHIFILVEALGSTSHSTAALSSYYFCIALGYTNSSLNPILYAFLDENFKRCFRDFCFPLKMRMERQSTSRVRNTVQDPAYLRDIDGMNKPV

[7] = biological target: T2, Amine oxidase [flavin-containing] A (Homo sapiens, UniProt P21397); format: functional
T2 sequence (P21397 whole entry): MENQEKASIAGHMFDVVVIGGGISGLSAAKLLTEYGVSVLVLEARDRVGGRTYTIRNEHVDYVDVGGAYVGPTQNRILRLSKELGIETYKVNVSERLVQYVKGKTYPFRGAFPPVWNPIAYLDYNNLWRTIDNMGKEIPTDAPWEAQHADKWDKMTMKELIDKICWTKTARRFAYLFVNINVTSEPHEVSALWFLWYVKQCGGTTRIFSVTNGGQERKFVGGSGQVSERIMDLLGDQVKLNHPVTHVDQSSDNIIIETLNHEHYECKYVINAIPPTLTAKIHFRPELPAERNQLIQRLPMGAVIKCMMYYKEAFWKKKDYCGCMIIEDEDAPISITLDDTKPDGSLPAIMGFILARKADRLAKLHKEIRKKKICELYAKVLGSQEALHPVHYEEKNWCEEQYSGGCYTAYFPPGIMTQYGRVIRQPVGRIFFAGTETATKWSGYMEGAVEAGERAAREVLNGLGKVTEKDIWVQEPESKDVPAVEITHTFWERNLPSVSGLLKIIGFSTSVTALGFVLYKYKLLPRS

[8] = biological target: cGMP-inhibited 3',5'-cyclic phosphodiesterase 3A (Homo sapiens, UniProt Q14432); format: functional
cGMP-inhibited 3',5'-cyclic phosphodiesterase 3A, sequence (Q14432 whole entry): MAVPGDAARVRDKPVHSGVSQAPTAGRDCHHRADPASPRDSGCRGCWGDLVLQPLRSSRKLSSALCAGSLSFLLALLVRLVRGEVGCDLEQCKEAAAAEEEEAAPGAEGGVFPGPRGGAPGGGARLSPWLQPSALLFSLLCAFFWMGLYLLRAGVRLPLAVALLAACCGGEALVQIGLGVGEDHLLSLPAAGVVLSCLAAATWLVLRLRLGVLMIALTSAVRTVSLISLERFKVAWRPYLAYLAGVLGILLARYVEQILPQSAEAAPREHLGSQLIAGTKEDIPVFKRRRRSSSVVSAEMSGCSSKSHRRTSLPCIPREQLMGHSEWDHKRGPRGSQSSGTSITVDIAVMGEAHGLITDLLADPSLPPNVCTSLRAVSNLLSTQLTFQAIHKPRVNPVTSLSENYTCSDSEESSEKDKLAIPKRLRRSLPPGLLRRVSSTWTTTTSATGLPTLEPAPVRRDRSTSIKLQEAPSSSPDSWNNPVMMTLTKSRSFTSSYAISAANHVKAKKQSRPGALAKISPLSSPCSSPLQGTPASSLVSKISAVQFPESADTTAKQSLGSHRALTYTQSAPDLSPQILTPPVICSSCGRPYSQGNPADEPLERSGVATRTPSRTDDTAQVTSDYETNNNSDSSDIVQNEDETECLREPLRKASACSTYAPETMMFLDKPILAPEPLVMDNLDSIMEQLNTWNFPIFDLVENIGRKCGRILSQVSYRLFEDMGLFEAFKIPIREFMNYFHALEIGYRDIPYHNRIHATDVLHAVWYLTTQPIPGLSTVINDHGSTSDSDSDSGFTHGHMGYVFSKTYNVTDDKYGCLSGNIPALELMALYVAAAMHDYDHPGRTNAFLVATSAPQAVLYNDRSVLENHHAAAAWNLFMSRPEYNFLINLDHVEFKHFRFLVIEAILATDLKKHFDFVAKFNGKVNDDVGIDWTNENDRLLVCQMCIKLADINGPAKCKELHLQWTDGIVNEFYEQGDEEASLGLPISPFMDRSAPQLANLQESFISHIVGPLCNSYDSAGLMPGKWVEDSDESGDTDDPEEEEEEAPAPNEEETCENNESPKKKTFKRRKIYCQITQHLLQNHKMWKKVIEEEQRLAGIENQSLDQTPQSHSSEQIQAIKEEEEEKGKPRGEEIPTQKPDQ

[9] = biological target: Beta-1 adrenergic receptor (Homo sapiens, UniProt P08588); format: functional
Beta-1 adrenergic receptor, sequence (P08588 whole entry): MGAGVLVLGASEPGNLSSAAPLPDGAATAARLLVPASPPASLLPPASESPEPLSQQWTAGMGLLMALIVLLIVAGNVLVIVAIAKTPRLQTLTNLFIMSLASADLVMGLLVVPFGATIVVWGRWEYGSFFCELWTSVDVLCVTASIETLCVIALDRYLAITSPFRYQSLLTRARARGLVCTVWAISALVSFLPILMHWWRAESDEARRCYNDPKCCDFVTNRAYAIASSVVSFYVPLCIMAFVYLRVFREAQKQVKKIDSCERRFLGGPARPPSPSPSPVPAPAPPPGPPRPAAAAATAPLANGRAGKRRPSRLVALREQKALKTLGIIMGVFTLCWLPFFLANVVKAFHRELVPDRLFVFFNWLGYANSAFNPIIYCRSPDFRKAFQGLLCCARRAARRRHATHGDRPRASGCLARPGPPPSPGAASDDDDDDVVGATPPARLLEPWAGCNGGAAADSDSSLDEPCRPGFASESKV

Vasopressin V2 receptor = Vasopressin V2 receptor (Homo sapiens, UniProt P30518)
Vasopressin V2 receptor, sequence (P30518 whole entry): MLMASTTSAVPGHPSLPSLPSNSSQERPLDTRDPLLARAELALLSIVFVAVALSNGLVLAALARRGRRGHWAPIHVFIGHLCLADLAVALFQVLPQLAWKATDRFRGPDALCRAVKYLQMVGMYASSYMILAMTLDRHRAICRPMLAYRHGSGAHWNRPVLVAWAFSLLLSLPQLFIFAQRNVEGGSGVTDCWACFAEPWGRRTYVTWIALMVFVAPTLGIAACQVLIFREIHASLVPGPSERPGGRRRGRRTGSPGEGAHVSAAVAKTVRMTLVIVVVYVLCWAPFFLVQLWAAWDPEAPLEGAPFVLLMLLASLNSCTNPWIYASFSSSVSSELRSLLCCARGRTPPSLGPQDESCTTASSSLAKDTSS

B2 bradykinin receptor = biological target: T3, B2 bradykinin receptor (Homo sapiens, UniProt P30411)
T3 sequence (P30411 whole entry): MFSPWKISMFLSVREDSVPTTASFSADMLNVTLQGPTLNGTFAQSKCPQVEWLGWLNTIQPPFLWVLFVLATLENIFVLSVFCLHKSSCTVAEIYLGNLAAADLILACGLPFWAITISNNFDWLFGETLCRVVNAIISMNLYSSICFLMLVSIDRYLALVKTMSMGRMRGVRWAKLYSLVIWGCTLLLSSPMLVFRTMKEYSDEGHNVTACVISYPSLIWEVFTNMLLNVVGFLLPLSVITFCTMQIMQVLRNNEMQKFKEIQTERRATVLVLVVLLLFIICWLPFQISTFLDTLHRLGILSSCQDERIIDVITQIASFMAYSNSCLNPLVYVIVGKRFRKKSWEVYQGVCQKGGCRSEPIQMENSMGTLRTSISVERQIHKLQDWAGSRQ

[10] = biological target: T4, Cholecystokinin receptor type A (Homo sapiens, UniProt P32238)
T4 sequence (P32238 whole entry): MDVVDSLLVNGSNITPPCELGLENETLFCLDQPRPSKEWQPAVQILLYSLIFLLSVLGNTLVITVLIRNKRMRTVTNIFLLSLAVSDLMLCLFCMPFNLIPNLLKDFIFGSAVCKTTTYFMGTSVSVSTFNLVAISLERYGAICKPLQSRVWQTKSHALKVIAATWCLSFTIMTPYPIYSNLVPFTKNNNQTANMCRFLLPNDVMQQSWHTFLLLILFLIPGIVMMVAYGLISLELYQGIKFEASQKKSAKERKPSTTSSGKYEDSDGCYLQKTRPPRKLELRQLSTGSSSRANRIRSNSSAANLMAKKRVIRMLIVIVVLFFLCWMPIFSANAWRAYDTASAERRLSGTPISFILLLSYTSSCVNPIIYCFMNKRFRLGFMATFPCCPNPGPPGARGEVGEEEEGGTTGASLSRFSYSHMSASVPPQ

[11] = biological target: Growth hormone secretagogue receptor type 1 (Homo sapiens, UniProt Q92847)
Growth hormone secretagogue receptor type 1, sequence (Q92847 whole entry): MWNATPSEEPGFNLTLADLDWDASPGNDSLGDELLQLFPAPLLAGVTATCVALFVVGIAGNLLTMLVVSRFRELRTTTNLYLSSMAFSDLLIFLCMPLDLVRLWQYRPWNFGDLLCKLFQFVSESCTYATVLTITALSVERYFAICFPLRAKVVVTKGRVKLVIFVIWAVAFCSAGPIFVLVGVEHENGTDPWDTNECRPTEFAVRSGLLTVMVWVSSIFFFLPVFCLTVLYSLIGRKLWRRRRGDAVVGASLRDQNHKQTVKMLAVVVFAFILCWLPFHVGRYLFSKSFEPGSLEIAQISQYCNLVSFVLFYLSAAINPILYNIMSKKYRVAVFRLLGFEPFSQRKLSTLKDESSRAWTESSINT
Note: assay procedure not described here.

Compound | AC50 [1] [µM] | AC50 [2] [µM] | AC50 [3] [µM] | AC50 (D(1A) dopamine receptor) [µM] | AC50 [4] [µM] | AC50 [5] [µM] | AC50 (Histamine H2 receptor) [µM] | AC50 [6] [µM] | AC50 [7] [µM] | AC50 [8] [µM] | AC50 [9] [µM] | AC50 (Vasopressin V2 receptor) [µM] | AC50 (B2 bradykinin receptor) [µM] | AC50 [10] [µM] | AC50 [11] [µM]
COCCOc1cnc(NS(=O)(=O)c2ccccc2)nc1 [GLYMIDINE] | > 30 | – | – | – | – | – | – | – | – | – | – | – | – | – | –
CO/N=C(\C(=O)N[C@@H]1C(=O)N2C(C(=O)[O-])=C(C[n+]3cccc4c3CCC4)CS[C@H]12)c1csc(N)n1 [CEFPIROME] | – | > 30 | > 30 | > 30 | > 30 | > 30 | > 30 | > 30 | > 30 | > 30 | – | – | – | – | –
CCOC(=O)[C@H](CCc1ccccc1)N[C@@H](C)C(=O)N1Cc2cc(OC)c(OC)cc2C[C@H]1C(=O)O [MOEXIPRIL] | > 30 | – | – | – | – | – | – | – | – | – | – | – | – | – | –
CCn1cc(C(=O)O)c(=O)c2cc(F)c(N3CCNCC3)nc21 [ENOXACIN] | – | > 10 | > 10 | > 10 | > 30 | > 10 | > 10 | > 10 | > 10 | > 30 | > 10 | > 30 | > 30 | > 30 | > 30
c1ccc2c(CC3=NCCN3)cccc2c1 [NAPHAZOLINE] | – | 0.14 | 0.043 | – | > 30 | – | – | – | – | – | – | – | – | – | –
CC(=O)OCC[N+](C)(C)C [ACETYLCHOLINE] | – | > 10 | > 10 | > 10 | > 30 | > 10 | > 10 | > 10 | > 10 | > 30 | > 30 | > 30 | > 30 | > 30 | > 30
Cc1cc(CCN2CCN(c3cccc(Cl)c3)CC2)n[nH]1 [MEPIPRAZOLE] | > 30 | – | – | – | – | – | – | – | – | – | – | – | – | – | –
CCCC(=O)O[C@H]1[C@H](C)O[C@@H](O[C@H]2[C@H](N(C)C)[C@@H](O)[C@H](O[C@H]3[C@@H](CC=O)C[C@@H](C)[C@@H](O)/C=C/C=C/C[C@@H](C)OC(=O)C[C@@H](O)[C@@H]3OC)O[C@@H]2C)C[C@@]1(C)OC(=O)CC [ROKITAMYCIN] | > 30 | – | – | – | – | – | – | – | – | – | – | – | – | – | –
Oc1c(I)cc(Cl)c2cccnc12 [CLIOQUINOL] | – | > 30 | > 30 | > 30 | > 30 | 13 | > 30 | > 30 | > 30 | > 30 | – | – | – | – | –
COCCCOc1ccnc(C[S+]([O-])c2nc3ccccc3[nH]2)c1C (centres undefined) [RABEPRAZOLE] | – | > 10 | > 10 | > 10 | > 30 | > 10 | > 10 | > 10 | > 10 | > 30 | > 10 | > 30 | > 30 | > 30 | > 30
CC(c1ccc(Cl)c(Cl)c1)N1N=C(N)CC1=O (centres undefined) [MUZOLIMINE] | > 30 | – | – | – | – | – | – | – | – | – | – | – | – | – | –
C[C@]1(COc2ccc(N3CCC(Oc4ccc(OC(F)(F)F)cc4)CC3)cc2)Cn2cc([N+](=O)[O-])nc2O1 | – | – | – | – | > 30 | > 10 | – | > 10 | – | > 30 | > 10 | > 30 | > 30 | > 30 | > 30
C[C@H]1O[C@@H](O[C@H]2[C@@H](O)C[C@H](O[C@H]3[C@@H](O)C[C@H](O[C@H]4CC[C@@]5(C)[C@H](CC[C@@H]6[C@@H]5CC[C@]5(C)[C@@H](C7=CC(=O)OC7)CC[C@]65O)C4)O[C@@H]3C)O[C@@H]2C)C[C@H](O)[C@@H]1O [DIGITOXIN] | > 30 | – | – | – | – | – | – | – | – | – | – | – | – | – | –
CCC(=O)O[C@]1(C(=O)COC(C)=O)CC[C@H]2[C@@H]3CCC4=CC(=O)CC[C@]4(C)[C@H]3[C@@H](O)C[C@@]21C [HYDROCORTISONE ACEPONATE] | > 30 | – | – | – | – | – | – | – | – | – | – | – | – | – | –
